This note sets out measurements from patent US6935334B2, “Enhancing therapeutic effectiveness of nitric oxide inhalation” (The General Hospital Corporation, priority 2000, dated 2005).

Data set [1] is described as follows: Lung wet/dry ratio (Example 2). Format: in vivo, mouse. Conditions: breathing 4 or 40 ppm NO for 22 hours. As for the experimental part: Lung wet/dry ratio. After euthanasia with pentobarbital (0.1 mg/g intraperitoneally), both lungs, excluding hilar structures, were excised, blotted, and immediately weighed. Thereafter, the tissue was dried in a microwave oven for 60 minutes, as described previously (20), and reweighed. Lung wet/dry ratio was calculated.

The subject of data set [2] is isolated-perfused mouse lungs preconstricted with U46619. Description: Pulmonary vasodilator response to NO inhalation in isolated, perfused and ventilated mouse lungs preconstricted with U46619. In kind it is in vivo. Conditions: for pulmonary vasodilator response to subsequent ventilation with NO after prolonged NO breathing: prolonged breathing of 20 ppm NO. As for the experimental part:
Isolated, Perfused, and Ventilated Mouse Lung Model Mice were killed by intraperitoneal injection of pentobarbital sodium (200 mg/kg body weight) and placed in a 37° C. water-jacketed chamber (Isolated Perfused Lung Size 1 Type 839; Hugo-Sachs Elektronik, March-Hugstetten, Germany). The trachea was isolated and intubated, and the lungs were ventilated with 21% O2, 6% CO2 and 73% N2 using a volume-controlled ventilator (model 687; Harvard Apparatus, South Natick, Mass.) at a ventilatory rate of 85 breaths/min and 2 cm H2O end-expiratory pressure. The tidal volume was adjusted to provide a peak inspiratory pressure of 10 cm H2O throughout each study. The lungs were exposed via a midline sternotomy, and a ligataure was placaed around the aorticopulmonary outflow tract. After injection of 10 IU heparin into the right ventricle, the pulmonary artery was cannulated with a stainless steel cannula (1 mm ID) via the right ventricle. The pulmonary venous effluent was drained via a stainless steel cannula (1 mm ID) placed through the apex of the left ventricle across the mitral valve and into the left atrium. Left atrial pressure was maintained at 2 mmHg. Lungs were perfused at a constant flow (50 ml. kg body weight^−1. min^−1; Ismatec Reglo-Analogue roller pump; Laboratoriumstechnik GmbH, Wertheim-Mondfeld, Germany) with a non-recirculating system at 37° C. The perfusate used was Hanks' Balanced Salt Solution (GibcoBRL, Grand Island, N.Y.) containing 1.26 mM CaCl2, 5.33 mM KCl, 0.44 mM KH2PO4, 0.50 mM MgCl2, 0.41 mM MgSO4, 138.0 mM NaCl, 4.0 mM NaHCO3, 0.3 mM Na2HPO4, and 5.6 mM glucose. Bovine serum albumin, 5%, and dextran, 5% (both from Sigma Chemical Co., St. Louis, Mo.), were added to the perfusate to prevent pulmonary edema, in the isolated, perfused, and ventilated rat lung, essentially as described in Holzmann et al., 1996, Am. J. Physiol. 271:L981-L986. Indomethacin, […] (Sigma Chemical Co.), and 1 mM L-NAME (Sigma Chemical Co.) were added to the perfusate to inhibit endogenous prostaglandin and NO synthesis, respectively. Sodium bicarbonate was added to adjust the perfusate pH to 7.34-7.43.
Pulmonary artery pressure (PAP) and left atrial pressure were measured via saline-filled membrane pressure transducers (Argon, Athens, Tex.) connected to a side port of the inflow and outflow cannulae, respectively. Airway pressure (Paw) was measured using a differential pressure transducer (model MP-45-32-871; Validyne Engineering Corp., Northridge, Calif.) connected to the inspiratory limb just before the Y piece. Pressure transducers were connected to a biomedical amplifier (Hewlett Packard 7754B, Andover, Mass.), and data were recorded at 150 Hz on a personal computer using an analog-to-digital interface with a data acquisition system (DI-220; Dataq Instruments, Akron, Ohio). The system was calibrated before each experiment.
For NO inhalation, NO gas (800 or 80 ppm NO in nitrogen, Airco, Murray Hill, N.J.) was blended (Oxygen Blender; Bird Corporation, Palm Springs, Calif.) with oxygen, carbon dioxide, and nitrogen to achieve a final concentration of 21% O2, 6% CO2, and the desired NO concentration. NO and higher oxidative states of NO (NOx; CLD 700 AL; Eco Physics, Dürmten, Switzerland), oxygen (Hudson Ventronics Ddivision, Temecula, Calif.), and carbon dioxide (Datex CO2 monitor; Puritan-Bennett Corpration, Los Angeles, Calif.) concentrations were monitored continuously.
Pulmonary Vascular Response to NO inhalation after Lipopolysaccharide Challenge Wild-type mice and NOS2-deficient mice were injected intraperitoneally with 50 mg/kg body weight Escherichia coli 0111:B4 lipopolysaccharide (LPS; Difco Laboratories, Detroit, Mich.) dissolved in saline 16 h before isolated lung perfusion. This time point was chosen based on previous studies in rats (Holzmann et al., 1996, Am. J. Physiol. 271:L981-L986). Untreated wild-type and NOS2-deficient mice served as controls. […]

Regarding `[N]=O` [NO, Nitric oxide], the “wet/dry lung weight ratios” value in data set [1] is on record as “did not alter”. Besides, the “effect of NO inhalation on PAP” value in data set [2] (0.4, 4 and 40 ppm NO for 5 min each, all groups) is “decreased the PAP in a dose-dependent manner”. Further, the “ΔPAP (change in PAP by inhaled NO as percentage of U46619-induced increase)” value is on record as −24±4% in data set [2] (0.4 ppm NO, lipopolysaccharide-pretreated NOS2-deficient mice exposed to 20 ppm ambient NO for 16 h); −42±4% in data set [2] (0.4 ppm NO, untreated control NOS2-deficient mice exposed to 20 ppm ambient NO for 16 h); −39±5% in data set [2] (4 ppm NO, lipopolysaccharide-pretreated NOS2-deficient mice exposed to 20 ppm ambient NO for 16 h); −58±4% in data set [2] (4 ppm NO, untreated control NOS2-deficient mice exposed to 20 ppm ambient NO for 16 h); −55±3% in data set [2] (40 ppm NO, lipopolysaccharide-pretreated NOS2-deficient mice exposed to 20 ppm ambient NO for 16 h); −62±5% in data set [2] (40 ppm NO, untreated control NOS2-deficient mice exposed to 20 ppm ambient NO for 16 h). In data set [2] (breathing 0.2 ppm NO for 16 h after lipopolysaccharide, NOS2-deficient mice), the “subsequent responsiveness to short-term inhaled NO after prolonged NO breathing” value is “did not cause subsequent hyporesponsiveness”. Also, the “subsequent vasodilator response to 0.4 ppm NO inhalation after prolonged NO breathing” value in data set [2] (breathing 2 ppm NO for 16 h after lipopolysaccharide, NOS2-deficient mice, compared with control mice) is reported as “decreased the vasodilator response”. Besides, the “pulmonary vasodilator response to subsequent ventilation with NO after prolonged NO breathing” value in data set [2] (endotoxin-challenged NOS2-deficient mice) was “markedly impaired the pulmonary vasodilator response”; in data set [2] (untreated wild-type or NOS2-deficient mice), “does not impair the pulmonary vasodilator response”.
